Target: p38 MAP kinase (Homo sapiens, UniProt Q16539)
Test: p38 MAP Kinase Assay (33P incorporation into myelin basic protein, filter plate)
Format: biochemical
Details: Table 2; MKK6-activated p38, MBP substrate, 50 minutes
Procedure: The activated p38 is then diluted 1:6 with assay buffer, and 20 μl mixed with 25 μl of MBP mix (300 μl 10×strength assay buffer, 300 μl of 10 mM DTT & 10 mM sodium orthovanadate, 1.7 ml H2O, 50 μCi γ^33P-ATP, 200 μl of myelin basic protein (MBP) (5 mg/ml)) and added to 96 well plates along with 5 μl of various dilutions of the test compound in DMSO (up to 10%). The reaction is allowed to proceed for 50 minutes before being stopped with an excess of ortho-phosphoric acid (30 μl at 2%).
γ^33P-ATP which remains unincorporated into the myelin basic protein is separated from phosphorylated MBP on a Millipore MAPH filter plate. The wells of the MAPH plate are wetted with 0.5% orthophosphoric acid, and then the results of the reaction are filtered with a Millipore vacuum filtration unit through the wells. Following filtration, the residue is washed twice with 200 μl of 0.5% orthophosphoric acid. Once the filters have dried, 25 μl of Microscint 20 scintillant is added, and then counted on a Packard Topcount for 30 seconds.

Chain of p38 MAP kinase (Q16539 whole entry): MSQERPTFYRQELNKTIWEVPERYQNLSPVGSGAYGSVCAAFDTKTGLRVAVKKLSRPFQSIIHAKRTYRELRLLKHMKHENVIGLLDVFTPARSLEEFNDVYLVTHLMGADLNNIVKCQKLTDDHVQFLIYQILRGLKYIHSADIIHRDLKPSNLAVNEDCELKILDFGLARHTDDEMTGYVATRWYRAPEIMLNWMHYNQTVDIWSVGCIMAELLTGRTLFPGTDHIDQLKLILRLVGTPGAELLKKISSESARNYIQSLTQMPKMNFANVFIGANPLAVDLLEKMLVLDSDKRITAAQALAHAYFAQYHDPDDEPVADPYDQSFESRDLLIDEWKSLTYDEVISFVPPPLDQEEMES

Row | IC50 [µM] | Compound
1 | < 20 | CC(C)(C)c1cc(C(=O)Nc2ccc(F)c(COc3cnccn3)c2)n(Cc2ccccc2)n1 [Compound 135, 2-Benzyl-5-tert-butyl-2H-pyrazole-3-carboxylic acid [4-fluoro-3-(pyrazin-2-yloxymethyl)-phenyl]-amide]
2 | < 20 | CC(C)(C)c1cc(C(=O)Nc2ccc(F)c(COc3cnccn3)c2)n(Cc2ccc(F)cc2)n1 [Compound 136, 5-tert-Butyl-2-(4-fluoro-benzyl)-2H-pyrazole-3-carboxylic acid [4-fluoro-3-(pyrazin-2-yloxymethyl)-phenyl]-amide]
3 | < 2 | CC(CO)(CO)NC(=O)c1cnc(OCc2c(Cl)cccc2Cl)cn1 [Compound 137, 5-(2,6-Dichloro-benzyloxy)-pyrazine-2-carboxylic acid (2-hydroxy-1-hydroxymethyl-1-methyl-ethyl)-amide]
4 | < 1000 | NS(=O)(=O)CCNC(=O)c1cnc(OCc2c(Cl)cccc2Cl)cn1 [Compound 138, 5-(2,6-dichloro-benzyloxy)-pyrazine-2-carboxylic acid (2-sulfamoyl-ethyl)-amide]
5 | < 20 | CC(C)(Cc1ccncc1)NC(=O)c1cnc(OCc2c(Cl)cccc2Cl)cn1 [Compound 139, 5-(2,6-Dichloro-benzyloxy)-pyrazine-2-carboxylic acid (1,1-dimethyl-2-pyridin-4-yl-ethyl)-amide]
6 | < 2 | O=C(Nc1ccc(F)c(COc2cnccn2)c1)Nc1nnc(C2CCCO2)s1 (stereo not shown) [Compound 140, 1-[4-Fluoro-3-(pyrazin-2-yloxymethyl)-phenyl]-3-[5-(tetrahydro-furan-2-yl)-[1,3,4]thiadiazol-2-yl]-urea]
7 | < 20 | Clc1cccc(Cl)c1COc1cnc(NCc2ccccc2)cn1 [Compound 141, Benzyl-[5-(2,6-dichloro-benzyloxy)-pyrazin-2-yl]-amine]
8 | < 200 | CC(C)(C)c1ccc2[nH]cc(CC(=O)Nc3ccc(F)c(COc4cnccn4)c3)c2c1 [Compound 143]
9 | < 2 | Cc1nc2sccn2c1C(=O)Nc1ccc(F)c(COc2cnccn2)c1 [Compound 144, 6-Methyl-imidazo[2,1-b]thiazole-5-carboxylic acid [4-fluoro-3-(pyrazin-2-yloxymethyl)-phenyl]-amide]
10 | < 200 | C=CS(=O)(=O)Nc1cnc(OCc2c(Cl)cccc2Cl)cn1 [Compound 145]
11 | < 2 | CC(C)(C)c1cc(C(=O)Nc2ccc(F)c(COc3cnccn3)c2)cc(C(C)(C)C)c1 [Compound 146, 3,5-Di-tert-butyl-N-[4-fluoro-3-(pyrazin-2-yloxymethyl)-phenyl]-benzamide]
12 | < 20 | O=C(Nc1ccc(F)c(COc2cnccn2)c1)c1ccc(=O)n(Cc2ccccc2)c1 [Compound 147, 1-Benzyl-6-oxo-1,6-dihydro-pyridine-3-carboxylic acid [4-fluoro-3-(pyrazin-2-yloxymethyl)-phenyl]-amide]
13 | < 200 | CNc1cnc(OCc2c(Cl)cccc2Cl)cn1 [Compound 148, [5-(2,6-Dichloro-benzyloxy)-pyrazin-2-yl]-methyl-amine]
14 | < 200 | CSc1nnc(NC(=O)Nc2ccc(F)c(COc3cnccn3)c2)s1 [Compound 149, 1-[4-Fluoro-3-(pyrazin-2-yloxymethyl)-phenyl]-3-(5-methylsulfanyl-[1,3,4]thiadiazol-2-yl)-urea]
15 | < 2 | O=C(Nc1ccc(F)c(COc2cnccn2)c1)c1cc(N2CCOCC2)nc(N2CCOCC2)n1 [Compound 150, 2,6-Di-morpholin-4-yl-pyrimidine-4-carboxylic acid [4-fluoro-3-(pyrazin-2-yloxymethyl)-phenyl]-amide]
16 | < 2 | Cc1nc(-c2cccc(C(=O)Nc3ccc(F)c(COc4cnccn4)c3)c2)cs1 [Compound 151, N-[4-Fluoro-3-(pyrazin-2-yloxymethyl)-phenyl]-3-(2-methyl-thiazol-4-yl)-benzamide]
17 | < 200 | Clc1cccc(Cl)c1COc1cnc(N2CCOCC2)cn1 [Compound 152, 4-[5-(2,6-Dichloro-benzyloxy)-pyrazin-2-yl]-morpholine]
18 | < 2 | CC(C)(C)c1cc(NC(=O)Nc2ccc(F)c(COc3cnccn3)c2)n(Cc2ccccc2)n1 [Compound 153, 1-(2-Benzyl-5-tert-butyl-2H-pyrazol-3-yl)-3-[4-fluoro-3-(pyrazin-2-yloxymethyl)-phenyl]-urea]
19 | < 20 | CC(Nc1cnc(OCc2c(Cl)cccc2Cl)cn1)c1ccccc1 (stereo not shown) [Compound 154, [5-(2,6-Dichloro-benzyloxy)-pyrazin-2-yl]-(1-phenyl-ethyl)-amine]
20 | < 20 | CC(C)(C)c1cc(NC(=O)Nc2ccc(F)c(COc3cnccn3)c2)n(-c2nc3ccccc3s2)n1 [Compound 155, 1-(2-Benzothiazol-2-yl-5-tert-butyl-2H-pyrazol-3-yl)-3-[4-fluoro-3-(pyrazin-2-yloxymethyl)-phenyl]-urea]
21 | < 2 | CC(C)(C)c1cc(NC(=O)Nc2ccc(F)c(COc3cnccn3)c2)n(-c2ccc(Cl)nn2)n1 [Compound 156, 1-[5-tert-Butyl-2-(6-chloro-pyridazin-3-yl)-2H-pyrazol-3-yl]-3-[4-fluoro-3-(pyrazin-2-yloxymethyl)-phenyl]-urea]

Row | IC50 [µM] | Compound
22 | < 2 | Cc1cc(-n2nc(C(C)(C)C)cc2NC(=O)Nc2ccc(F)c(COc3cnccn3)c2)nc(C)n1 [Compound 157, 1-[5-tert-Butyl-2-(2,6-dimethyl-pyrimidin-4-yl)-2H-pyrazol-3-yl]-3-[4-fluoro-3-(pyrazin-2-yloxymethyl)-phenyl]-urea]
23 | < 200 | OCCNc1cnc(OCc2c(Cl)cccc2Cl)cn1 [Compound 158, 2-[5-(2,6-Dichloro-benzyloxy)-pyrazin-2-ylamino]-ethanol]
24 | < 1000 | C[S+]([O-])c1nnc(NC(=O)Nc2ccc(F)c(COc3cnccn3)c2)s1 (stereo not shown) [Compound 159, 1-[4-Fluoro-3-(pyrazin-2-yloxymethyl)-phenyl]-3-(5-methanesulfinyl-[1,3,4]thiadiazol-2-yl)-urea]
25 | < 2 | CC(C)(C)c1cc(NC(=O)Nc2ccc(F)c(COc3cnccn3)c2)n(-c2ccncc2)n1 [Compound 160, 1-(5-tert-Butyl-2-pyridin-4-yl-2H-pyrazol-3-yl)-3-[4-fluoro-3-(pyrazin-2-yloxymethyl)-phenyl]-urea]
26 | < 2 | O=C(Nc1ccc(F)c(COc2cnccn2)c1)Nc1cc(C2CCCO2)nn1-c1ccc(F)cc1 (stereo not shown) [Compound 161, 1-[2-(4-Fluoro-phenyl)-5-(tetrahydro-furan-2-yl)-2H-pyrazol-3-yl]-3-[4-fluoro-3-(pyrazin-2-yloxymethyl)-phenyl]-urea]
27 | < 1000 | CN1CCCC(CNC(=O)c2cnc(OCc3c(Cl)cccc3Cl)cn2)C1 (stereo not shown) [Compound 162]
28 | < 2 | CC(C)(C)c1cc(NC(=O)Nc2ccc(F)c(COc3cnccn3)c2)n(-c2ccc(S(C)(=O)=O)cc2)n1 [Compound 163, 1-[5-tert-Butyl-2-(4-methanesulfonyl-phenyl)-2H-pyrazol-3-yl]-3-[4-fluoro-3-(pyrazin-2-yloxymethyl)-phenyl]-urea]
29 | < 200 | CC(C)(C)c1ccc(-n2nc(C3CC3)cc2NC(=O)Nc2ccc(F)c(COc3cnccn3)c2)cc1 [Compound 164, 1-[2-(4-tert-Butyl-phenyl)-5-cyclopropyl-2H-pyrazol-3-yl]-3-[4-fluoro-3-(pyrazin-2-yloxymethyl)-phenyl]-urea]
30 | < 2 | O=C(Nc1ccc(F)c(COc2cnccn2)c1)Nc1cc(C2CCOCC2)nn1-c1ccc(F)cc1 [Compound 165, 1-[2-(4-Fluoro-phenyl)-5-(tetrahydro-pyran-4-yl)-2H-pyrazol-3-yl]-3-[4-fluoro-3-(pyrazin-2-yloxymethyl)-phenyl]-urea]
31 | < 200 | Clc1cccc(Cl)c1COc1cnc(NC2CCOCC2)cn1 [Compound 166]
32 | < 200 | CC(C)(C)C(=O)Nc1cnc(OCc2c(Cl)cccc2Cl)cn1 [Compound 167]
33 | < 200 | CC1(C(=O)Nc2cnc(OCc3c(Cl)cccc3Cl)cn2)CC1 [Compound 168]
34 | < 200 | CN1CCC(CC(=O)Nc2cnc(OCc3c(Cl)cccc3Cl)cn2)CC1 [Compound 169]
35 | < 20 | CN1CCN(CC(=O)Nc2cnc(OCc3c(Cl)cccc3Cl)cn2)CC1 [Compound 170]
36 | < 200 | O=C(CN1CCOCC1)Nc1cnc(OCc2c(Cl)cccc2Cl)cn1 [Compound 171]
37 | < 200 | O=C(CN1CCCCC1)Nc1cnc(OCc2c(Cl)cccc2Cl)cn1 [Compound 172]
38 | < 200 | O=C(CC1CCOCC1)Nc1cnc(OCc2c(Cl)cccc2Cl)cn1 [Compound 173]
39 | < 20 | O=C(Cn1ccnc1)Nc1cnc(OCc2c(Cl)cccc2Cl)cn1 [Compound 174]
40 | < 2 | O=C(Nc1cnc(OCc2c(Cl)cccc2Cl)cn1)N1CCOCC1 [Compound 175]
41 | < 2 | CC(C)(CO)NC(=O)Nc1cnc(OCc2c(Cl)cccc2Cl)cn1 [Compound 176]
42 | < 200 | CC(C)(CO)C(=O)Nc1cnc(OCc2c(Cl)cccc2Cl)cn1 [Compound 177]

Row | Compound | IC50 [µM]
43 | CC(C)(C)c1cc(NC(=O)Oc2cccc(COc3cnccn3)c2)n(-c2ccccc2)n1 [Compound 142] | < 200

— patent publication US20060063782A1, “3-Hetero arylmethoxy ! pyridines and their analogues as p38 map kinase inhibitors” (priority 2002, published 2006)
